According to patent US8648215B2, “Spiroenone and uses thereof” (Joben Bio-Medical Co., Ltd., priority 2012, dated 2014):

System: MCF-7 cells
Test: MTT assay for antiproliferation, MCF-7 cells
Type: cell-based
Conditions: Homo sapiens, MCF7, 24 h, read-out: percentage of inhibition
Description: Cell Lines and Culture. MCF-7, T-47D, and H184B5F5/M10 cells were cultured with 5% CO2 atmosphere at 37° C.; MDA-MB-231 cells were cultured without CO2 at 37° C. The MCF-7 cells were cultured in MEM containing 10% heat-inactivated FBS, 100 units/mL penicillin, 100 μg/mL streptomycin, and 1 mM sodium pyruvate. The T-47D cells were maintained in RPMI-1640 medium containing 10% heat inactivated FBS, 100 units/mL penicillin, and 100 μg/mL streptomycin. […]
Assay for Antiproliferation. To determine the antiproliferative effect, MCF-7, T-47D, MDA-MB-231, or H184B5F5/M10 cells were assessed using the MTT assay as previously reported (Ho, C. Y.; Kim, C. F.; Leung, K. N.; Fung, K. P.; Tse, T. F.; Chan, H.; Lau, C. B. Differential anti-tumor activity of Coriolus versicolor (Yunzhi) extract through p53- and/or Bcl-2-dependent apoptotic pathway in human breast cancer cells. Cancer Biol. Ther. 2005, 4, e11-e17). […] The absorbance at 570 nm was measured, and the viability of cells was calculated using the following equation: relative cell number (%)=(average absorbance of treated wells)×100/(average absorbance of blank vehicle wells).

## COC1=C(C)CC2(CC1)C(C)=CC(=O)C=C2C [compound 3, coixspiroenone]
  inhibition at 50 µM: 19.2%
